The source of these data is patent US20250243488A1, “METHODS OF MODULATING PROGRANULIN EXPRESSION USING ANTISENSE OLIGONUCLEOTIDES TARGETING REGULATORY RNAS” (Camp4 Therapeutics Corporation, priority 2022, published 2025).

Oligonucleotides are written 5' to 3', each unit as a sugar letter and its base; * is a phosphorothioate linkage, no mark a phosphodiester; rarer units and linkages stand in square brackets, end groups in braces. Plain capitals give the bases only. e = 2'-O-(2-methoxyethyl) (MOE); l = locked nucleic acid (LNA); [5mC] = 5-methylcytosine; d = 2'-deoxy (DNA)

One data set concerns mGrn mRNA. The data set can be described thus: mGrn mRNA qPCR in Neuro2a cells transfected with ASOs. Conditions: Table 14; Neuro2a, 100 nM, 48 hours; normalized to sNTC3. The class given is cell-based, mouse. Here is the method:
57 ASOs targeting the Grn promoter (− strand) were screened in Neuro2a cells. Neuro2a cells were transfected with 100 nM of each of the ASOs listed in Table 14 and cells were harvested 48 hours later for Grn mRNA quantification using qPCR. Housekeeping genes for normalization were Gapdh and Ppia. Relative Grn mRNA levels were normalized to mRNA extracted from cells treated with sNTC3 (steric nontargeting control).
Next, 26 ASOs based on parent ASOs CO-3544 and CO-3595 were designed with different modifications and base walking. Neuro2a cells were transfected with either […] or 160 nM of each of the ASOs listed in Table 15, and cells were harvested 48 hours later for mGrn mRNA quantification using qPCR. As controls, cells were treated with sNTC3 or no ASO. Housekeeping genes for normalization were Gapdh and Ppia. Relative Grn mRNA levels were normalized to mRNA extracted from cells treated with sNTC3.
CO-3544 was modified to include PO/PS bonds and the efficacy in upregulating mGrn mRNA was determined.
Similarly, CO-3595 was modified to include varying PO/PS internucleotide bonds and the efficacy of these ASOs in upregulating mGrn mRNA was determined in Neuro2A cells.
(In general: In qPCR the cycle at which signal appears reflects the starting amount.)

A further data set has as its system GRN mRNA. The data set can be described thus: GRN mRNA qPCR in SK-N-AS cells transfected with ASOs. The data set is classed as cell-based, human. The settings on record: for hGRN mRNA FC: Table 11, 48 hours; for hGRN mRNA FC / 30 nM FC (GRN mRNA) / 60 nM FC (GRN mRNA) / 120 nM FC (GRN mRNA): SK-N-AS, normalized to CO-1589; for hGRN mRNA FC / 120 nM FC (GRN mRNA): 120 nM; for 30 nM FC (GRN mRNA) / 60 nM FC (GRN mRNA) / 120 nM FC (GRN mRNA): Table 12. The procedure, abridged:
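Fold change in GRN mRNA, by qPCR with GAPDH/PPIA housekeeping normalization, referenced to steric non-targeting control ASO(s) such as CO-1589. ASOs were transfected into SK-N-AS neuroblastoma cells in dose titrations (20 to 160 nM initially). Cells were harvested 48 hours post-transfection.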

For “CO-3545: ASO targeting the Grn promoter (− strand) (antisense e[5mC]*eT*eA*eG*eT*eG*eG*eA*eA*eG*eA*eT*eG*eT*e[5mC]*eG*eG*eA*eG*e[5mC])”, in the data set with mGrn mRNA, the “mGRN mRNA FC” value is reported as 1.7 FC.
Consider “CO-3546: ASO targeting the Grn promoter (− strand) (antisense eG*eA*eA*eA*eT*eT*e[5mC]*eA*eT*eT*eT*e[5mC]*e[5mC]*e[5mC]*e[5mC]*eT*e[5mC]*eG*eA*e[5mC])”, for which the “mGRN mRNA FC” value in the data set with mGrn mRNA turned out to be 1.4 FC.
With “CO-3547: ASO targeting the Grn promoter (− strand) (antisense eA*eT*e[5mC]*eT*eG*eG*eA*eT*eT*eG*eG*e[5mC]*eT*e[5mC]*eA*e[5mC]*e[5mC]*eT*eT*eT)”, in the data set on mGrn mRNA, the “mGRN mRNA FC” value came to 1.7 FC.
The same measure, in the same setting: the same measure for “CO-3548: ASO targeting the Grn promoter (− strand) (antisense e[5mC]*eA*e[5mC]*eT*eT*eT*eT*e[5mC]*e[5mC]*e[5mC]*e[5mC]*e[5mC]*eG*e[5mC]*eT*eG*e[5mC]*e[5mC]*eT*e[5mC])”: 1.5 FC; for “CO-3549: ASO targeting the Grn promoter (− strand) (antisense eA*eG*e[5mC]*eT*eA*eA*eT*eT*eT*e[5mC]*e[5mC]*eG*e[5mC]*e[5mC]*eT*e[5mC]*eT*e[5mC]*e[5mC]*e[5mC])”: 1.4 FC; for “CO-3550: ASO targeting the Grn promoter (− strand) (antisense eG*eG*eT*eT*eG*eT*eG*eT*e[5mC]*eA*eG*e[5mC]*eT*eT*eT*eA*eT*eT*eT*e[5mC])”: 0.9 FC.
On to “CO-3551: ASO targeting the Grn promoter (− strand) (antisense eG*e[5mC]*eG*eT*eG*eA*eT*eG*eG*e[5mC]*eT*eG*eA*eG*eT*e[5mC]*e[5mC]*e[5mC]*eT*eG)”, for which the “mGRN mRNA FC” value in the data set on mGrn mRNA is 1.5 FC.
Same read-out and setting: the same measure for “CO-3552: ASO targeting the Grn promoter (− strand) (antisense e[5mC]*e[5mC]*eT*eT*eG*eG*e[5mC]*e[5mC]*e[5mC]*e[5mC]*e[5mC]*eA*eG*eA*eG*e[5mC]*eT*e[5mC]*eA*eA)”: 1.1 FC.
As for “CO-3553: ASO targeting the Grn promoter (− strand) (antisense e[5mC]*eA*eA*eG*eT*eG*eT*eT*e[5mC]*eT*e[5mC]*eT*eG*e[5mC]*eG*eG*e[5mC]*eG*eG*e[5mC])”, the “mGRN mRNA FC” value in the data set on mGrn mRNA was 1.3 FC.
As to “CO-6448: ASO designed to target an intragenic enhancer RNA (eRNA) (eT*e[5mC]*e[5mC]*e[5mC]*eG*eG*eT*eG*e[5mC]*e[5mC]*e[5mC]*eT*eG*eA*eT*eG*eG*eT*eT*e[5mC])”, the “hGRN mRNA FC” value in the data set on GRN mRNA turned out to be 1.1 FC.
Consider “CO-6449: ASO designed to target an intragenic enhancer RNA (eRNA) (eG*eT*e[5mC]*e[5mC]*eA*eG*e[5mC]*eT*e[5mC]*eG*eG*eT*e[5mC]*eA*eT*eG*eT*eG*eT*e[5mC])”, for which the “hGRN mRNA FC” value with GRN mRNA turned out to be 1.1 FC.
Same read-out and setting: the same measure for “CO-6450: ASO designed to target an intragenic enhancer RNA (eRNA) (e[5mC]*eA*eG*eT*eG*eG*e[5mC]*e[5mC]*eT*eT*eG*eT*e[5mC]*e[5mC]*eA*eG*e[5mC]*eT*e[5mC]*eG)”: 0.9 FC; for “CO-6451: ASO designed to target an intragenic enhancer RNA (eRNA) (eA*e[5mC]*eG*eT*eT*eT*eG*e[5mC]*eT*e[5mC]*e[5mC]*eT*e[5mC]*eT*eT*e[5mC]*e[5mC]*eA*eG*eT)”: 1.0 FC; for “CO-6452: ASO designed to target an intragenic enhancer RNA (eRNA) (eT*eG*eG*e[5mC]*eT*eG*e[5mC]*e[5mC]*e[5mC]*e[5mC]*eT*e[5mC]*eA*e[5mC]*eG*eT*eT*eT*eG*e[5mC])”: 1.4 FC.
As for “CO-6453: ASO designed to target an intragenic enhancer RNA (eRNA) (eG*eA*eA*eA*eA*eA*eG*eT*eT*eT*e[5mC]*e[5mC]*eT*e[5mC]*e[5mC]*eA*eT*e[5mC]*e[5mC]*eT)”, in the data set with GRN mRNA, the “hGRN mRNA FC” value amounted to 0.9 FC.
On the same count and under the same terms, the same measure for “CO-6454: ASO designed to target an intragenic enhancer RNA (eRNA) (e[5mC]*e[5mC]*eA*eA*eG*eT*eG*eT*eA*eG*eG*eA*eA*eA*eA*eA*eG*eT*eT*eT)”: 1.0 FC; for “CO-6455: ASO designed to target an intragenic enhancer RNA (eRNA) (e[5mC]*eT*e[5mC]*eA*eT*eT*eG*eA*e[5mC]*eT*e[5mC]*e[5mC]*eA*eA*eG*eT*eG*eT*eA*eG)”: 0.9 FC.
In the case of “CO-6512: ASO based on parent ASO CO-3462 (antisense eT*eA*eGeGeAeGeA*eA*eT*e[5mC]*eG*e[5mC]eT*eT*eT*eG*eG*eG*eA*eG)”, in the data set on GRN mRNA, the “30 nM FC (GRN mRNA)” value is reported as 1.3 FC, the “60 nM FC (GRN mRNA)” value worked out at 1.8 FC and the “120 nM FC (GRN mRNA)” value is given as 1.3 FC.
With “CO-6513: ASO based on parent ASO CO-3462 (antisense eT*eA*eGeGeAeGeAeAeT*e[5mC]*eG*e[5mC]*eT*eT*eT*eG*eG*eG*eA*eG)”, in the data set with GRN mRNA, the “30 nM FC (GRN mRNA)” value is 1.3 FC, the “60 nM FC (GRN mRNA)” value worked out at 2.7 FC and the “120 nM FC (GRN mRNA)” value was determined as 1.8 FC.
“CO-6514: ASO based on parent ASO CO-3462 (antisense eT*eA*eGeGeAeGeAeAeTe[5mC]eG*e[5mC]*eT*eT*eT*eG*eG*eG*eA*eG)”: in the data set on GRN mRNA, the “30 nM FC (GRN mRNA)” value worked out at 1.4 FC, the “60 nM FC (GRN mRNA)” value worked out at 1.9 FC and the “120 nM FC (GRN mRNA)” value is recorded as 1.8 FC.
In the same order, the values of “CO-6515: ASO based on parent ASO CO-3462 (antisense eT*eA*eGeGeAeGeAeAeTe[5mC]eGe[5mC]eT*eT*eT*eG*eG*eG*eA*eG)” are 1.2 FC, 1.8 FC and 1.7 FC.
In the same order, the values of “CO-6516: ASO based on parent ASO CO-3462 (antisense eT*eA*eGeGeAeGeAeAeTe[5mC]eGe[5mC]eTeTeT*eG*eG*eG*eA*eG)” are 1.0 FC, 1.4 FC and 1.0 FC.
Consider “CO-6517: ASO based on parent ASO CO-3462 (antisense eT*eA*eGeGeAeGeAeAeTe[5mC]eGe[5mC]eTeTeTeGeG*eG*eA*eG)”, for which, in the data set with GRN mRNA, the “30 nM FC (GRN mRNA)” value amounted to 1.2 FC, the “60 nM FC (GRN mRNA)” value worked out at 2.3 FC and the “120 nM FC (GRN mRNA)” value was determined as 2.0 FC.
In the same order, the values of “CO-6518: ASO based on parent ASO CO-3462 (antisense eT*eA*eG*eGeAeGeAeAeTe[5mC]eGe[5mC]eTeTeTeGeGeG*eA*eG)” are 1.2 FC, 1.3 FC and 0.9 FC.
In the same order, the values of “CO-6519: ASO based on parent ASO CO-3462 (antisense eT*eA*eG*eG*eA*eGeAeAeTe[5mC]eGe[5mC]eTeTeTeGeGeG*eA*eG)” are 1.1 FC, 1.0 FC and 0.9 FC.
In the same order, the values of “CO-6520: ASO based on parent ASO CO-3462 (antisense eT*eA*eG*eG*eA*eG*eA*eAeTe[5mC]eGe[5mC]eTeTeTeGeGeG*eA*eG)” are 1.0 FC, 1.2 FC and 0.8 FC.
With “CO-6521: ASO based on parent ASO CO-3462 (antisense eT*eA*eG*eG*eA*eG*eA*eA*eT*e[5mC]eGe[5mC]eTeTeTeGeGeG*eA*eG)”, in the data set on GRN mRNA, the “30 nM FC (GRN mRNA)” value worked out at 1.1 FC, the “60 nM FC (GRN mRNA)” value came to 1.2 FC and the “120 nM FC (GRN mRNA)” value was 1.1 FC.
For the substance “CO-6522: ASO based on parent ASO CO-3462 (antisense eT*eA*eG*eG*eA*eG*eA*eA*eT*e[5mC]*eG*e[5mC]eTeTeTeGeGeG*eA*eG)”, in the data set with GRN mRNA, the “30 nM FC (GRN mRNA)” value is on record as 1.1 FC, the “60 nM FC (GRN mRNA)” value turned out to be 1.0 FC and the “120 nM FC (GRN mRNA)” value came to 1.1 FC.
Regarding “CO-6523: ASO based on parent ASO CO-3462 (antisense eT*eA*eG*eG*eA*eG*eA*eA*eT*e[5mC]*eG*e[5mC]*eT*eTeTeGeGeG*eA*eG)”, in the data set with GRN mRNA, the “30 nM FC (GRN mRNA)” value turned out to be 2.9 FC, the “60 nM FC (GRN mRNA)” value was determined as 1.4 FC and the “120 nM FC (GRN mRNA)” value worked out at 1.3 FC.
As to “CO-8877: hGRN regRNA-targeting ASO with additional chemical modifications (antisense eT*eA*lG*e[5mC]*eA*dA*dA*d[5mC]*dT*d[5mC]*d[5mC]*d[5mC]*d[5mC]*d[5mC]*dA*eG*eG*l[5mC]*eG*e[5mC])”, in the data set on GRN mRNA (3.75 to 90 nM, 48 hours post-transfection, normalized to sNTC (FIGS. 26A, 26B)), the “GRN mRNA expression in SK-N-AS cells” value is recorded as “dose-dependent increase”.
